This is an account of results in US8658649B2, “Kinase inhibitor” (Sanofi, priority 2006, dated 2014).

Test [1] concerns Collagen-induced arthritis (CIA). Nature of the test: Rat collagen induced arthritis, therapeutic dosing. Type of test: in vivo. As for the experimental part: Immunization and Challenge: Female Lewis rats were immunized on day 0 and challenged on day 7 with cII from bovine nasal mixed with Freund's incomplete adjuvant at a final collagen concentration of 1.0 mg/ml. The animals were injected at the base of the tail with 400 μg of cII.
Therapeutic Dosing Regimen: The compound of Formula I (10 and 30 mg/kg, p.o., b.i.d.) was orally administered starting on day 12 and continued through day 21.
Joint Pathology Ankle joint swelling was measured to the nearest 0.01 mm by using electronic digital calipers. Measurements were recorded 7 times throughout the study starting on day 6 and ending on day 21. Body weights were recorded on the same days. On day 21, hind paws were removed at the hairline just above the ankle and fixed in 10% neutral buffered formalin.
MicroCT analysis: Ankle joints were examined using a cone-beam μCT scanner. […] In ankle joints, the ratio of bone surface to bone volume, describing the complexity of bone surface in a certain volume, was analyzed.
Statistical Analysis For joint swelling/inflammation, data were analyzed using Everstat v.5 software and a 2-way repeated measure ANOVA with Dunnett's post test. MicroCT data were analyzed by Everstat using a 1-way ANOVA and Newman-Keuls multiple comparison test. […]

The subject of test [2] is hematological malignant cell lines. Nature of the test: Viability assay (MTS), panel of hematological malignant cell lines. It is filed as cell-based. As for the experimental part: This method is to determine the viability of a liquid tumor cell line following treatment with a test compound. Tumor cells are maintained in suspension at log phase growth. On the day of use, cells are resuspended to a density of 0.05 to 0.1 million/ml and cells are incubated in 96 well plate with the test compounds for 96 hours. Viability of cells was measured by incubating cells with Promega's MTS reagent. The viability of the cell is proportional to the change in absorbance at 490 nm. By comparing the absorbance between control and compound-treated cells, the impact of the test compounds on the cell viability is determined as a percent of the control cell viability.
Harvest cells in complete RPMI from log-phase cultures at densities of approximately 0.3-0.7 million/ml. Count cells and adjust to 0.1 million/ml in phenol red free cRPMI (For fast growing cells with doubling time of equal or less than 24 hours, e.g. K562, use 0.05 million/ml instead to avoid over-growing).
Transfer triplicates of 100 μl of cells to the wells of 96-well clear plates for a total of 10000 cells/well. Note that each well already contains 10 μl of 10× concentrated test compound prepared as above.
Incubate cells for 72-96 hours at 37° C. in a tissue culture incubator containing 5% CO2.
1. […]
4. Incubate at 370 C until the absorbance at 490 nm for the control cells is >1.5. […]

`CCc1c(-c2ccc(C(C)(C)O)cc2)[nH]c2nccnc12` [compound of Formula I, 2-[4-(7-Ethyl-5H-pyrrolo[2,3-b]pyrazin-6-yl)-phenyl]-propan-2-ol]: in test [1] (10 mg/kg or 30 mg/kg, therapeutic dosing, vs vehicle), the “bone erosion (ratio of bone surface to bone volume), MicroCT” value is given as “significant decrease in bone erosion”. Further, the ankle swelling/inflammation entry in test [1] (10 and 30 mg/kg p.o. b.i.d. from day 12, day 15-21) is on record as “significantly reduced ankle swelling/inflammation”. Further, the “anti-proliferation activity in the two MCL cell lines” value in test [2] (Jeko-1 and Granta-519) is “consistently active”. Besides, the “hematological malignant cell lines against which the compound is inhibitory” value in test [2] (MTS assay, panel of Table 4) is recorded as 6 out of 15.
